Calls of active or inactive are those of the source. The calls are words filed in the database; no cut-off is given here.

The source of these data is ChEMBL document CHEMBL6096719, “Kidney Targeting Smart Antibiotic Discovery: Multimechanism Pleuromutilins for Pyelonephritis Therapy” (J Med Chem, 2025).

In the experiment the test system is Escherichia coli. Put plainly: Antibacterial activity against Escherichia coli ATCC25922 infected in pyelonephritis C57BL/6 mouse model assessed as decrease in kidney swelling at 3 to 10 mg/kg, iv qd for 3 days administered at 2 days post-infection. The class given is functional, organism-based. The conditions noted are these: dose 3-10 mg/kg, time 3.0 day.

With `C=C[C@]1(C)C[C@@H](OC(=O)CSc2nc3cc[n+](Cc4ccc(C)cc4)cc3[nH]2)[C@]2(C)[C@H](C)CC[C@]3(CCC(=O)[C@H]32)[C@@H](C)[C@@H]1O.[Br-]`, the outcome was Active.
